According to patent US20220177902A1, “LOW-METHANE RICE” (priority 2019, published 2022):

System: methanogens
Assay: Methanogen propagation upon fumarate treatment of rice (qPCR methanogen determination)
Conditions: SUSIBA2 rice and Nipponbare rice treated with fumarate for two weeks (from Week 6 to Week 8), groups Mst, MET, Msc, MBT, MMB, Arc
Protocol: FIG. 12. Response of methanogen propagation of different groups upon fumarate treatment for two weeks (from Week 6 to Week 8). Mst (Methanosaetaceae), MET (methanogens), Msc (Methanosarcinaceae), MBT (Methanobacteriales), MMB (Methanomicrobiales), Arc (archaea), and Met for Methanocella-specific.
Quantitative PCR was performed for both methanogen determination and rice gene expression in the same way as described in Su et al. (2015).
CRISPR/Cas technology was used to successfully delete the yin transcription factor (sucrose-response region) in the yin-yang system (Jin et al. (2017)) in rice to achieve larger panicles (FIG. 11). The increased panicle size meant that more carbon was reallocated to the panicles, which in turn led to less carbon to fumarate section from roots below ground.

## O=C(O)/C=C/C(=O)O [fumarate]
  Response of methanogen propagation of different groups upon fumarate treatment: all methanogen groups propagated
